In publication PMC6150310, “Synthesis and Structure–Activity Relationships of 4-Morpholino-7,8-Dihydro-5H-Thiopyrano[4,3-d]pyrimidine Derivatives Bearing Pyrazoline Scaffold” (Molecules : A Journal of Synthetic Chemistry and Natural …, 2017):

Legend:
[1] = system: four cancer cell lines (A549, PC-3, MCF-7, HepG2); assay: MTT cytotoxicity assay, four cancer cell lines together; type: cell-based; conditions: Homo sapiens, range over A549, PC-3, MCF-7, HepG2, read-out: IC50 values against four cancer cell lines
Protocol: (§1) Taking GDC-0941 as the reference compound, the target compounds (7a–l and 8a–l) were evaluated for the cytotoxicity against four cancer cell lines A549, PC-3, MCF-7, and HepG2 by 3-(4,5-dimethylthiazolyl-2)-2,5-diphenyltetrazolium bromide (MTT) cell proliferation assay. In order to confirm the types of target compound, selective or mixed-type inhibitors, the selected compound, 8d, was measured for its PI3Kα kinase inhibitory activity together with reference compounds GDC-0941 and PI103 via the Kinase-Glo® Luminescent […] assay. The results expressed as inhibition rates or IC50 values are summarized in Table 1 and Table 2, where the values are the average of at least two independent experiments.
The in vitro cytotoxic activities of Compounds 7a–l and 8a–l were evaluated with A549, PC-3, HepG2, and MCF-7 cell lines by the standard MTT assay, with GDC-0941 as a positive control. The cancer cell lines were cultured in minimum essential medium (MEM) supplement with 10% fetal bovine serum (FBS). […] The formazan crystals were dissolved in 100 µL of DMSO in each well, and the absorbency at 492 nm (for absorbance of MTT formazan) and 630 nm (for the reference wavelength) was measured with an enzyme linked immunosorbent assay (ELISA) reader (MR-96A Mindray Elisa Microplate Reader, Guangzhou, China). […]

MCF-7 cell line = assay: MTT cytotoxicity assay, MCF-7; type: cell-based; conditions: Homo sapiens, MCF7, 72 h, average of two determinations, NA = No Activity
Protocol: as §1
(§2) The in vitro cytotoxic activities of Compounds 7a–l and 8a–l were evaluated with A549, PC-3, HepG2, and MCF-7 cell lines by the standard MTT assay, with GDC-0941 as a positive control. The cancer cell lines were cultured in minimum essential medium (MEM) supplement with 10% fetal bovine serum (FBS). Approximately, 4 × 10^3 cells, suspended in MEM medium, were plated onto each well of a 96-well plate and incubated in 5% CO2 at 37 °C for 24 h. The test compounds at the indicated final concentrations were added to the culture medium, and cell cultures continued for 72 h. Fresh MTT was added to each well at a terminal concentration of […] and incubated with cells at 37 °C for 4 h. The formazan crystals were dissolved in 100 µL of DMSO in each well, and the absorbency at 492 nm (for absorbance of MTT formazan) and 630 nm (for the reference wavelength) was measured with an enzyme linked immunosorbent assay (ELISA) reader (MR-96A Mindray Elisa Microplate Reader, Guangzhou, China). All compounds were tested three times in each of the cell lines. The results expressed as inhibition rates or IC50 were the averages of two determinations and calculated using the Bacus Laboratories Inc. Slide Scanner (Bliss) software (the Bacus Laboratories Inc. Slide Scanner (BLISS) system, Lombard, IL, USA).

PI3Kα = PI3Kα (Homo sapiens, UniProt P42336); assay: PI3Kα Kinase-Glo Luminescent Kinase Assay; type: biochemical; conditions: 1 µM ATP, 60 min, average of two determinations
A549 cell line = assay: MTT cytotoxicity assay, A549; type: cell-based; conditions: Homo sapiens, A549, 72 h, average of two determinations, NA = No Activity
Protocol: as §1, §2

HepG2 cell line = assay: MTT cytotoxicity assay, HepG2; type: cell-based; conditions: Homo sapiens, HepG2, 72 h, average of two determinations, NA = No Activity
Protocol: as §1, §2

PC-3 cell line = assay: MTT cytotoxicity assay, PC-3; type: cell-based; conditions: Homo sapiens, PC-3, 72 h, average of two determinations, NA = No Activity
Protocol: as §1, §2

PI3Kα, sequence (P42336 whole entry): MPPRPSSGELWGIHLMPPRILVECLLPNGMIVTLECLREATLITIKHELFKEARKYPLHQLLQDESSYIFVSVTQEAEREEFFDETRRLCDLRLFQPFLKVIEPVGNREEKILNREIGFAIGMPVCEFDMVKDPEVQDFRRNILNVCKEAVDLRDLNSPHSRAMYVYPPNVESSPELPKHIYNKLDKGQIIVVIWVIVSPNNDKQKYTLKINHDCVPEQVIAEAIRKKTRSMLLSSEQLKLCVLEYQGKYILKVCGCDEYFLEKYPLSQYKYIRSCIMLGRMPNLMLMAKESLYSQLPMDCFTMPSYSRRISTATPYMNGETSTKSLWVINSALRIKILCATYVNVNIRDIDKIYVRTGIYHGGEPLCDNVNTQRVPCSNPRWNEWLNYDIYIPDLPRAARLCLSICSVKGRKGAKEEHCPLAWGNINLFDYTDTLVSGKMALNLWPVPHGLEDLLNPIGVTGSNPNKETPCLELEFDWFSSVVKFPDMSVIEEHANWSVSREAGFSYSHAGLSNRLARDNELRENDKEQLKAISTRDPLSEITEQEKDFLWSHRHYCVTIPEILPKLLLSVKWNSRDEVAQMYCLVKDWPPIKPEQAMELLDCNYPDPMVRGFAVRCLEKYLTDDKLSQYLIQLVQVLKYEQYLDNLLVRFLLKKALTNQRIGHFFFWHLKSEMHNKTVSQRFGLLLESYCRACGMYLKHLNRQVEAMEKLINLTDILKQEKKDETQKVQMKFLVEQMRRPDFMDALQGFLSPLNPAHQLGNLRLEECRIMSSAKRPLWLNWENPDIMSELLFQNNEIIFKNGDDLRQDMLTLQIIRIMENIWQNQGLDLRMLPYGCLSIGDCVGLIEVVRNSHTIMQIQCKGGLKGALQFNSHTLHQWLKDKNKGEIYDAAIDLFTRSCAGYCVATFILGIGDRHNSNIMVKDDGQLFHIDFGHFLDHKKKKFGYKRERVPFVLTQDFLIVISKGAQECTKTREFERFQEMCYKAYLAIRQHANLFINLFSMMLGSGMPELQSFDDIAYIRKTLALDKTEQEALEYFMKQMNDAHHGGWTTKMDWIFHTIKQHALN
PI3Kα, sequence (P27986 whole entry partner): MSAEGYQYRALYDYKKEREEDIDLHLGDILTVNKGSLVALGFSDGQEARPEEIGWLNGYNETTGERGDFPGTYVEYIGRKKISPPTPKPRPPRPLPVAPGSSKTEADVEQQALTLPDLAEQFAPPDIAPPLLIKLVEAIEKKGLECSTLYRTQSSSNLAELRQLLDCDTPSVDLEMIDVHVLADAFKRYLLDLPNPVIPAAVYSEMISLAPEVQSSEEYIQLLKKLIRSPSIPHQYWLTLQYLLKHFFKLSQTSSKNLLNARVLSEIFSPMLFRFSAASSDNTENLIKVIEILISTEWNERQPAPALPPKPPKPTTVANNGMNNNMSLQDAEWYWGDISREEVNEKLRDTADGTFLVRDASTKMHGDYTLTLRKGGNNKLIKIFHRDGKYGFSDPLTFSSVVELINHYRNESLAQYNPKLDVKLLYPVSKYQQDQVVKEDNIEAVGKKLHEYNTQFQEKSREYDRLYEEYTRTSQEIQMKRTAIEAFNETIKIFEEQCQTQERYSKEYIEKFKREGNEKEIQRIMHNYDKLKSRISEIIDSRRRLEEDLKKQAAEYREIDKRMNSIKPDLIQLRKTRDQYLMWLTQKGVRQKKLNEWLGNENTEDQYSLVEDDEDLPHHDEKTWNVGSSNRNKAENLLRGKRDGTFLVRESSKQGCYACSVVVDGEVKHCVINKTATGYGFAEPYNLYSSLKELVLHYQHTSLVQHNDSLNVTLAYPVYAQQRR

IC50 (PI3Kα) | melting point | SMILES | IC50 [1] | IC50 (MCF-7 cell line) | IC50 (A549 cell line) | IC50 (HepG2 cell line) | IC50 (PC-3 cell line)
8.38 ± 0.21 µM | – | O=S1(=O)CCc2nc(N3N=C(c4ccc(F)cc4)C[C@@H]3c3ccc(Cl)c(Cl)c3)nc(N3CCOCC3)c2C1 (racemic) [Compound 8d, (R)-2-(5-(3,4-Dichlorophenyl)-3-(4-fluorophenyl)-4,5-dihydro-1H-pyrazol-1-yl)-4-morpholino-7,8-dihydro-5H-thiopyrano[4,3-d]pyrimidine 6,6-dioxide] | 6.02 to 10.3 µM | 10.3 ± 0.94 µM | – | – | –
– | 246 to 249 °C | O=S1(=O)CCc2nc(N3N=C(c4ccc(F)cc4)C[C@@H]3c3ccc(F)cc3)nc(N3CCOCC3)c2C1 [Compound 8g, (R)-2-(3,5-bis(4-Fluorophenyl)-4,5-dihydro-1H-pyrazol-1-yl)-4-morpholino-7,8-dihydro-5H-thiopyrano[4,3-d]pyrimidine 6,6-dioxide] | – | 35.3 ± 0.39 µM | 29.1 ± 0.49 µM | 36.01 ± 0.18 µM | 21.8 ± 0.67 µM
– | 140 to 142 °C | COc1ccc(C2=NN(c3nc4c(c(N5CCOCC5)n3)CS(=O)(=O)CC4)[C@@H](c3ccc(F)cc3)C2)cc1 [Compound 8h, (R)-2-(5-(4-Fluorophenyl)-3-(4-methoxyphenyl)-4,5-dihydro-1H-pyrazol-1-yl)-4-morpholino-7,8-dihydro-5H-thiopyrano[4,3-d]pyrimidine 6,6-dioxide] | – | 33.9 ± 0.45 µM | 35 ± 0.74 µM | 32.9 ± 2.82 µM | 26.6 ± 0.33 µM
– | 163 to 167 °C | O=S1(=O)CCc2nc(N3N=C(c4ccccc4)C[C@@H]3c3ccc(Br)cc3)nc(N3CCOCC3)c2C1 [Compound 8k, (R)-2-(5-(4-Bromophenyl)-3-phenyl-4,5-dihydro-1H-pyrazol-1-yl)-4-morpholino-7,8-dihydro-5H-thiopyrano[4,3-d]pyrimidine 6,6-dioxide] | – | 32.6 ± 0.49 µM | 35 ± 0.47 µM | 35.49 ± 0.33 µM | 33.5 ± 1.67 µM
